Test results: PubChem BioAssay AID248 (DTP/NCI, 2004)
Several values for one entry are separate records, joined by “and”; a condition that tells them apart may be missing. Equal values may be shown once. Inconclusive results and toxic doses are left out. Rule as the data show it: active = T/C of 150% or more; inactive = T/C below 125%.

Test system: L1210 leukemia ip in BDF1 mice, survival T/C
Experiment: NCI In Vivo Anticancer Drug Screen. Data for tumor model L1210 Leukemia (intraperitoneal) in B6D2F1 (BDF1) mice
Details: endpoint: mean survival time, higher = longer survival
Procedure, shortened: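 Ratio derived from survival: compound-dosed mice over vehicle-dosed mice, all bearing a transplantable tumor.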

[1] = dose: 100.0 mg/kg/injection, schedule: Q01DX009 (ip), vehicle: saline with Tween-80
[2] = dose: 100.0 mg/kg/injection, schedule: Q04DX002 (ip), vehicle: saline with Tween-80
[3] = dose: 100.0 mg/kg/injection, schedule: Q04DX003 (ip), vehicle: saline with Tween-80
[4] = dose: 200.0 mg/kg/injection, schedule: Q01DX009 (ip), vehicle: saline with Tween-80
[5] = dose: 200.0 mg/kg/injection, schedule: Q04DX002 (ip), vehicle: saline with Tween-80
[6] = dose: 200.0 mg/kg/injection, schedule: Q04DX003 (ip), vehicle: saline with Tween-80
[7] = dose: 400.0 mg/kg/injection, schedule: Q04DX002 (ip), vehicle: saline with Tween-80
[8] = dose: 400.0 mg/kg/injection, schedule: Q04DX003 (ip), vehicle: saline with Tween-80
[9] = dose: 100.0 mg/kg/injection, schedule: Q01DX009 (ip), vehicle: Klucel (hydroxypropylcellulose) (HPC)
[10] = dose: 100.0 mg/kg/injection, schedule: Q04DX003 (ip), vehicle: Klucel (hydroxypropylcellulose) (HPC)
[11] = dose: 200.0 mg/kg/injection, schedule: Q01DX009 (ip), vehicle: Klucel (hydroxypropylcellulose) (HPC)
[12] = dose: 200.0 mg/kg/injection, schedule: Q04DX003 (ip), vehicle: Klucel (hydroxypropylcellulose) (HPC)
[13] = dose: 400.0 mg/kg/injection, schedule: Q01DX009 (ip), vehicle: Klucel (hydroxypropylcellulose) (HPC)
[14] = dose: 400.0 mg/kg/injection, schedule: Q04DX003 (ip), vehicle: Klucel (hydroxypropylcellulose) (HPC)
[15] = dose: 100.0 mg/kg/injection, schedule: Q01DX009 (ip), vehicle: saline
[16] = dose: 200.0 mg/kg/injection, schedule: Q01DX009 (ip), vehicle: saline
[17] = dose: 100.0 mg/kg/injection, schedule: Q04DX003 (ip), vehicle: saline
[18] = dose: 200.0 mg/kg/injection, schedule: Q04DX003 (ip), vehicle: saline
[19] = dose: 400.0 mg/kg/injection, schedule: Q04DX003 (ip), vehicle: saline
[20] = dose: 100.0 mg/kg/injection, schedule: Q01DX001 (ip), vehicle: saline
[21] = dose: 400.0 mg/kg/injection, schedule: Q01DX009 (ip), vehicle: saline

Measured: T/C

O=CC(O)C(O)C(OC1OC(CO)C(O)C(O)C1O)C(O)CO (stereo unspecified) (tested in a mixture with another compound)
inactive: dose: 75.0 mg/kg/injection, schedule: Q01DX009 (ip), vehicle: carboxymethylcellulose (CMC) 105 % of control | dose: 100.0 mg/kg/injection, schedule: Q01DX001 (ip), vehicle: saline with Tween-80 94 % of control and 98 % of control | dose: 100.0 mg/kg/injection, schedule: Q01DX009 (ip), vehicle: carboxymethylcellulose (CMC) 98 % of control | [1] 94 % of control | [2] 108 % of control [middle of 4 runs] | [3] 97 % of control and 108 % of control | dose: 150.0 mg/kg/injection, schedule: Q01DX009 (ip), vehicle: carboxymethylcellulose (CMC) 105 % of control | dose: 200.0 mg/kg/injection, schedule: Q01DX001 (ip), vehicle: saline with Tween-80 98 % of control and 105 % of control | dose: 200.0 mg/kg/injection, schedule: Q01DX009 (ip), vehicle: carboxymethylcellulose (CMC) 105 % of control | [4] 100 % of control | [5] 97 % of control [middle of 4 runs] | [6] 91 % of control and 92 % of control | dose: 300.0 mg/kg/injection, schedule: Q01DX009 (ip), vehicle: carboxymethylcellulose (CMC) 100 % of control | dose: 400.0 mg/kg/injection, schedule: Q01DX001 (ip), vehicle: saline with Tween-80 93 % of control and 92 % of control | dose: 400.0 mg/kg/injection, schedule: Q01DX009 (ip), vehicle: carboxymethylcellulose (CMC) 96 % of control | [7] 96 % of control and 92 % of control and 94 % of control | [8] 101 % of control and 92 % of control

COc1ccc(C(C)=O)cc1N
inactive: [9] 98 % of control | [10] 94 % of control | [11] 104 % of control | [12] 93 % of control | [13] 116 % of control | [14] 94 % of control

CC(C)CCCC(C)CCO (stereo unspecified)
inactive: dose: 50.0 mg/kg/injection, schedule: Q01DX009 (ip), vehicle: saline 97 % of control | [15] 105 % of control | [16] 103 % of control

Fc1ccc(/C=N\N=C(N/N=C/c2ccc(F)cc2)N/N=C/c2ccc(F)cc2)cc1
inactive: dose: 12.5 mg/kg/injection, schedule: Q04DX003 (ip), vehicle: saline with Tween-80 101 % of control | dose: 15.0 mg/kg/injection, schedule: Q01DX Z (ip), vehicle: carboxymethylcellulose (CMC) 97 % of control | dose: 25.0 mg/kg/injection, schedule: Q04DX003 (ip), vehicle: saline with Tween-80 101 % of control | dose: 30.0 mg/kg/injection, schedule: Q01DX Z (ip), vehicle: carboxymethylcellulose (CMC) 97 % of control | dose: 30.0 mg/kg/injection, schedule: Q01DX Z (oral), vehicle: carboxymethylcellulose (CMC) 100 % of control | dose: 50.0 mg/kg/injection, schedule: Q04DX003 (ip), vehicle: saline with Tween-80 104 % of control | dose: 60.0 mg/kg/injection, schedule: Q01DX Z (ip), vehicle: carboxymethylcellulose (CMC) 101 % of control | dose: 60.0 mg/kg/injection, schedule: Q01DX Z (oral), vehicle: carboxymethylcellulose (CMC) 93 % of control and 100 % of control | [10] 90 % of control | dose: 120.0 mg/kg/injection, schedule: Q01DX Z (ip), vehicle: carboxymethylcellulose (CMC) 89 % of control | dose: 120.0 mg/kg/injection, schedule: Q01DX Z (oral), vehicle: carboxymethylcellulose (CMC) 98 % of control and 100 % of control | [12] 100 % of control | dose: 240.0 mg/kg/injection, schedule: Q01DX Z (oral), vehicle: carboxymethylcellulose (CMC) 102 % of control and 105 % of control | [14] 87 % of control

O=C(O)COc1ccc(F)c(Cl)c1
inactive: dose: 100.0 mg/kg/injection, schedule: Q04DX002 (ip), vehicle: saline 105 % of control | dose: 200.0 mg/kg/injection, schedule: Q04DX002 (ip), vehicle: saline 117 % of control | dose: 400.0 mg/kg/injection, schedule: Q04DX002 (ip), vehicle: saline 110 % of control

COc1ccc(Nc2cc(N)nc(N)n2)c(=S)[nH]1
inactive: [17] 97 % of control | [18] 97 % of control | [19] 93 % of control

CN(C)C(C#N)C(=O)c1ccccc1 (stereo unspecified)
inactive: [20] 97 % of control and 98 % of control | dose: 400.0 mg/kg/injection, schedule: Q01DX001 (ip), vehicle: saline 93 % of control

CCOC(=O)C(C(=O)O)C(C)C (stereo unspecified)
inactive: [20] 97 % of control | dose: 200.0 mg/kg/injection, schedule: Q01DX001 (ip), vehicle: saline 93 % of control

COC(=O)c1cc(=O)c2c(Cl)cccc2[nH]1
inactive: [17] 96 % of control | [18] 110 % of control | [19] 95 % of control

CCN(CC)C(=O)CN
inactive: [17] 103 % of control | [18] 100 % of control | [19] 103 % of control

Cc1ccc(C(=O)/C=C/c2ccc(N(C)C)cc2)cc1
inactive: [1] 90 % of control | [4] 93 % of control | dose: 400.0 mg/kg/injection, schedule: Q01DX009 (ip), vehicle: saline with Tween-80 97 % of control

O=c1[nH]cnc2nc(-c3ccc(Cl)cc3)c(-c3ccc(Cl)cc3)nc12
inactive: dose: 50.0 mg/kg/injection, schedule: Q01DX009 (ip), vehicle: Klucel (hydroxypropylcellulose) (HPC) 92 % of control | [9] 103 % of control | [11] 92 % of control

CCCCCCCCCCCCCCCC(=O)OCCCCCCCCCCC
inactive: [3] 100 % of control | [6] 92 % of control | [8] 101 % of control

BrCCCCCCCCCCC1(c2ccccc2)OCCO1
inactive: [9] 107 % of control | [11] 98 % of control | [13] 93 % of control

CCCCS(=O)(=O)N1CCCC1
inactive: [2] 101 % of control | [5] 101 % of control | [7] 101 % of control

NCCCNC/C=C/CNCCCN
inactive: dose: 75.0 mg/kg/injection, schedule: Q04DX003 (ip), vehicle: saline 105 % of control | dose: 150.0 mg/kg/injection, schedule: Q04DX003 (ip), vehicle: saline 102 % of control | dose: 300.0 mg/kg/injection, schedule: Q04DX003 (ip), vehicle: saline 104 % of control

O=C(O)c1ccc(/C=N/NC(=O)C(O)(c2ccccc2)c2ccccc2)cc1
inactive: dose: 100.0 mg/kg/injection, schedule: Q01DX001 (ip), vehicle: carboxymethylcellulose (CMC) 108 % of control | dose: 200.0 mg/kg/injection, schedule: Q01DX001 (ip), vehicle: carboxymethylcellulose (CMC) 108 % of control | dose: 400.0 mg/kg/injection, schedule: Q01DX001 (ip), vehicle: carboxymethylcellulose (CMC) 108 % of control

O=C1CCN2C=CC=CC2=N1
inactive: [15] 98 % of control | [17] 100 % of control | [16] 93 % of control | [18] 101 % of control | [21] 97 % of control | [19] 106 % of control

O=C(O)c1ccc2c(c1Nc1ccccc1)C(=O)c1ccccc1C2=O
inactive: [15] 106 % of control | [16] 94 % of control | [21] 94 % of control
